Biological target: T1, chicken gizzard smooth muscle myosin subfragment-1 chemically crosslinked to cardiac or skeletal actin (Gallus gallus, UniProt P10587)
T1 construct: chicken gizzard smooth muscle myosin subfragment-1; from tissue; host or cells: chicken gizzard
Assay: Smooth muscle myosin ATPase dose response assay (pyruvate kinase/horseradish peroxidase/pyruvate oxidase-coupled, amplex red fluorescence)
Format: biochemical
Conditions: read-out: IC50 Arithmetic Mean
Experimental: In Vitro Model of Dose Dependent Smooth Muscle Myosin ATPase Modulation
Screening assays were performed using a pyruvate kinase and lactate dehydrogenase-coupled ATPase assay containing the following reagents: Potassium PIPES (50 mM), MgCl2 (3 mM), KCl (100 mM), ATP (0.15 mM), DTT (1 mM), BSA (0.1 mg/ml), NADH (0.5 mM), PEP (1.5 mM), pyruvate kinase (4 U/ml), lactate dehydrogenase (8 U/ml), and antifoam (50 ppm) (concentrations expressed are final assay concentrations). The pH was adjusted to 6.80 at 22° C. by addition of potassium hydroxide. Lead optimization assays were performed with a more sensitive pyruvate kinase/horseradish peroxidase/pyruvate oxidase-coupled ATPase assay containing the following reagents: Potassium PIPES (12 mM), MgCl2 (2 mM), KCl (100 mM), ATP (0.15 mM), BSA (0.05 mg/ml), potassium phosphate (2 mM), amplex red (0.1 mM), PEP (0.1 mM), pyruvate kinase (4 U/ml), horseradish peroxidase (0.5 U/ml), pyruvate oxidase (0.5 U/ml), and antifoam (50 ppm) (concentrations expressed are final assay concentrations). The pH was adjusted to 7.00 at 22° C. by addition of potassium hydroxide.
The protein components specific to this assay are chicken gizzard smooth muscle myosin subfragment-1 that has been chemically crosslinked to either cardiac or skeletal actin using an excess of 1-Ethyl-3-[3-dimethylaminopropyl]carbodiimide hydrochloride and N-hydroxysuccinimide. The exact concentration of the crosslinked smooth muscle myosin in the assay is determined empirically, by titration to achieve a desired rate of ATP hydrolysis. The concentration varies between protein preparations due to variations in the fraction of active molecules in each preparation.
Compound dose response assays are performed by first preparing a dilution series of test compound, each with an assay mixture containing potassium PIPES, MgCl2, KCl, ATP, BSA, potassium phosphate, amplex red, PEP, crosslinked smooth muscle actomyosin (subfragment-1), antifoam, and water. The assay is started by adding an equal volume of solution containing potassium Pipes, MgCl2, KCl, BSA, potassium phosphate, pyruvate kinase, horseradish peroxidase, pyruvate oxidase, antifoam, and water. ATP hydrolysis is monitored by measuring the fluorescence of amplex red (excitation at 480 nm, emission at 615 nm). The resulting dose response curve is fit by the 4 parameter equation y=Bottom+((Top-Bottom)/(1+((IC50/X)^Hill))). The IC50 is defined as the concentration at which ATPase activity is midway between the top and bottom of the dose response curve.

T1 sequence (P02607 2-151): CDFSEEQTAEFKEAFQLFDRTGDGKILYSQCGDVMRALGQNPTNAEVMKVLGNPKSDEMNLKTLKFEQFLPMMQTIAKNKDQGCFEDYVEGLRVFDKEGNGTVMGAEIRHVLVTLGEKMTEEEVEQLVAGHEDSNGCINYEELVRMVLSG
T1 sequence (P10587 84-789): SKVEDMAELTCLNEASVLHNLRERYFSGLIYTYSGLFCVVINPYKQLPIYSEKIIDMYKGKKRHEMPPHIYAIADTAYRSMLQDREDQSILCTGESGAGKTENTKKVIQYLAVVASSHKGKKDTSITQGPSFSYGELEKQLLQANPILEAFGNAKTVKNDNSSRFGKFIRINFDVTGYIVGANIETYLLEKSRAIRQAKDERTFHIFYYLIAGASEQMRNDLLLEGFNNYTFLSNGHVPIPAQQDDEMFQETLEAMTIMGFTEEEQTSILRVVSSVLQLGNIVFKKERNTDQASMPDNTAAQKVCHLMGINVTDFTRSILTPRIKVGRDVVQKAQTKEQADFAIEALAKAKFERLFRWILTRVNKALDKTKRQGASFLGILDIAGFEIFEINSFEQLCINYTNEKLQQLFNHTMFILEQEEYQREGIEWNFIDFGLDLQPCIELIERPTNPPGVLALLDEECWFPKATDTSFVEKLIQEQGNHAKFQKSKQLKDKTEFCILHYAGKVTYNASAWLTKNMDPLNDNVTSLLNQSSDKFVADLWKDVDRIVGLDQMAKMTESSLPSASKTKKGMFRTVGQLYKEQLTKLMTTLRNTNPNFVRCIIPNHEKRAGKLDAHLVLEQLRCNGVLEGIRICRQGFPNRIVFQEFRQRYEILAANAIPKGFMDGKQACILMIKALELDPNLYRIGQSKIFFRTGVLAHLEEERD

Row | IC50 [µM] | Compound
1 | 0.515 | N#Cc1ccccc1-c1ccc(C(=O)NCc2ccc(CN)cn2)c(NCCc2cccc(F)c2)n1 [N-{[5-(aminomethyl)(2-pyridyl)]methyl}(6-(2-cyanophenyl)-2-{[2-(3-fluorophenyl)ethyl]amino}(3-pyridyl))carboxamide]
2 | 1.19 | CC(C)(C)OC(=O)NCc1cccc(CNC(=O)c2ccc(-c3ccccc3C#N)nc2NCCc2cccc(F)c2)n1
3 | 0.318 | N#Cc1ccccc1-c1ccc(C(=O)NC[C@H]2CNCC(=O)N2CCCN)c(NCCc2cccc(F)c2)n1 [N-{[(2R)-1-(3-aminopropyl)-6-oxopiperazin-2-yl]methyl}(6-(2-cyanophenyl)-2-{[2-(3-fluorophenyl)ethyl]amino}(3-pyridyl))carboxamide]
4 | 0.718 | COC(=O)N1CCC[C@H](CNC(=O)c2ccc(-c3ccccc3C#N)nc2NCCc2cccc(F)c2)C1 [methyl (3R)-3-{[(6-(2-cyanophenyl)-2-{[2-(3-fluorophenyl)ethyl]amino}(3-pyridyl))carbonylamino]methyl}piperidinecarboxylate]
5 | 0.053 | N#Cc1ccc(F)cc1-c1ccc(C(=O)NCc2cccnc2)c(NCCc2cccc(F)c2)n1 [(6-(2-cyano-5-fluorophenyl)-2-{[2-(3-fluorophenyl)ethyl]amino}(3-pyridyl))-N-(3-pyridylmethyl)carboxamide]
6 | 0.269 | COc1cccc(CCNc2nc(-c3ccccc3)ccc2C(=O)NCc2cccnc2)c1 [(2-{[2-(3-methoxyphenyl)ethyl]amino}-6-phenyl(3-pyridyl))-N-(3-pyridylmethyl)carboxamide]
7 | 0.021 | Cn1cc(-c2nc(NCCc3cccc(F)c3)c(C(=O)NCc3cccnc3)cc2Cl)cn1 [(5-chloro-2-{[2-(3-fluorophenyl)ethyl]amino}-6-(1-methylpyrazol-4-yl)(3-pyridyl))-N-(3-pyridylmethyl)carboxamide]
8 | 27.1 | Nc1ccc(CCNc2nc(-c3ccccc3)ccc2C(=O)NCc2cccnc2)cc1 [(2-{[2-(4-aminophenyl)ethyl]amino}-6-phenyl(3-pyridyl))-N-(3-pyridylmethyl)carboxamide]
9 | 0.398 | C[C@@H](N)CNC(=O)c1cc(F)c(-c2cnn(C)c2)nc1NCCc1cccc(F)c1 [N-((2R)-2-aminopropyl)(5-fluoro-2-{[2-(3-fluorophenyl)ethyl]amino}-6-(1-methylpyrazol-4-yl)(3-pyridyl))carboxamide]
10 | 1.08 | Cc1cc(-c2ccccc2C#N)nc(NCCc2cccc(F)c2)c1C(=O)NCc1cccnc1 [(6-(2-cyanophenyl)-2-{[2-(3-fluorophenyl)ethyl]amino}-4-methyl(3-pyridyl))-N-(3-pyridylmethyl)carboxamide]
11 | 0.359 | N#Cc1cc(C(=O)NC[C@H]2CCCN2C(=O)CCCN)c(NCCc2cccc(F)c2)nc1-c1cn[nH]c1 [N-{[(2R)-1-(4-aminobutanoyl)pyrrolidin-2-yl]methyl}(5-cyano-2-{[2-(3-fluorophenyl)ethyl]amino}-6-pyrazol-4-yl(3-pyridyl))carboxamide]
12 | 1.24 | NCc1ncccc1CNC(=O)c1ccc(-c2cn[nH]c2)nc1NCCc1ccccn1 [N-{[2-(aminomethyl)(3-pyridyl)]methyl}{6-pyrazol-4-yl-2-[(2-(2-pyridyl)ethyl)amino](3-pyridyl)}carboxamide]
13 | 0.42 | NCc1ccc(CNC(=O)c2ccc(-c3ccccc3)nc2NCCc2cccc(F)c2)cn1 [N-{[6-(aminomethyl)(3-pyridyl)]methyl}(2-{[2-(3-fluorophenyl)ethyl]amino}-6-phenyl(3-pyridyl))carboxamide]
14 | 1.48 | O=Cc1sccc1-c1ccc(C(=O)NCc2cccnc2)c(NCCc2cccc(F)c2)n1 [(2-{[2-(3-fluorophenyl)ethyl]amino}-6-(2-formyl(3-thienyl))(3-pyridyl))-N-(3-pyridylmethyl)carboxamide]
15 | 0.256 | N#Cc1ccccc1-c1ccc(C(=O)NCC2CCCCCN2C(=O)CCN)c(NCCc2cccc(F)c2)n1 (centres unmarked) [N-{[1-(3-aminopropanoyl)azaperhydroepin-2-yl]methyl}(6-(2-cyanophenyl)-2-{[2-(3-fluorophenyl)ethyl]amino}(3-pyridyl))carboxamide]
16 | 0.006 | N#Cc1ccccc1-c1ccc(C(=O)NCc2cccnc2CCN)c(NCCc2cccc(F)c2)n1 [N-{[2-(2-aminoethyl)(3-pyridyl)]methyl}(6-(2-cyanophenyl)-2-{[2-(3-fluorophenyl)ethyl]amino}(3-pyridyl))carboxamide]
17 | 0.383 | N#Cc1ccccc1-c1ccc(C(=O)NCC2CCCCCN2C(=O)CCCN)c(NCCc2cccc(F)c2)n1 (centres unmarked) [N-{[1-(4-aminobutanoyl)azaperhydroepin-2-yl]methyl}(6-(2-cyanophenyl)-2-{[2-(3-fluorophenyl)ethyl]amino}(3-pyridyl))carboxamide]
18 | 49.8 | O=C(NCc1cccnc1)c1ccc(-c2cnoc2)nc1NCCc1cccc(F)c1 [(2-{[2-(3-fluorophenyl)ethyl]amino}-6-isoxazol-4-yl(3-pyridyl))-N-(3-pyridylmethyl)carboxamide]
19 | 2.23 | Cn1cc(-c2nc(NCCc3cccc(F)c3)c(C(=O)NCC3COC(C)(C)OC3)cc2F)cn1 [N-[(2,2-dimethyl(1,3-dioxan-5-yl))methyl](5-fluoro-2-{[2-(3-fluorophenyl)ethyl]amino}-6-(1-methylpyrazol-4-yl)(3-pyridyl))carboxamide]
20 | 2.43 | O=C(NCc1cccnc1)c1ccc(-c2ccccc2)nc1NCCc1ccccc1O [(2-{[2-(2-hydroxyphenyl)ethyl]amino}-6-phenyl(3-pyridyl))-N-(3-pyridylmethyl)carboxamide]
21 | 4.75 | O=C(NC[C@H]1CCCN1)c1ccc(-c2cn[nH]c2)nc1NCCc1cccc(F)c1 [N-[((2R)pyrrolidin-2-yl)methyl](2-{[2-(3-fluorophenyl)ethyl]amino}-6-pyrazol-4-yl(3-pyridyl))carboxamide]
22 | 0.28 | N#Cc1ccc(-c2ccc(C(=O)NCc3cccnc3)c(NCCc3cccc(F)c3)n2)s1 [(6-(5-cyano(2-thienyl))-2-{[2-(3-fluorophenyl)ethyl]amino}(3-pyridyl))-N-(3-pyridylmethyl)carboxamide]
23 | 0.062 | N#Cc1ccccc1-c1ccc(C(=O)NC[C@H]2CCCN2C(=O)CCCN)c(NCCc2ccccc2)n1 [N-{[(2R)-1-(4-aminobutanoyl)pyrrolidin-2-yl]methyl}{6-(2-cyanophenyl)-2-[(2-phenylethyl)amino](3-pyridyl)}carboxamide]
24 | 0.014 | NCc1ncccc1CNC(=O)c1cc(F)c(-c2cc[nH]n2)nc1NCCc1cccc(F)c1 [N-{[2-(aminomethyl)(3-pyridyl)]methyl}(5-fluoro-2-{[2-(3-fluorophenyl)ethyl]amino}-6-pyrazol-3-yl(3-pyridyl))carboxamide]
25 | 0.281 | Cn1cc(-c2nc(NCCc3cccc(F)c3)c(C(=O)NC[C@H]3CCCN3)cc2C#N)cn1 [N-[((2R)pyrrolidin-2-yl)methyl](5-cyano-2-{[2-(3-fluorophenyl)ethyl]amino}-6-(1-methylpyrazol-4-yl)(3-pyridyl))carboxamide]

Row | Compound | IC50 [µM]
26 | CC(C)(C)OC(=O)NCCCN1C(=O)CC[C@@H]1CNC(=O)c1ccc(-c2ccccc2C#N)nc1NCCc1cccc(F)c1 [N-[((2R)-1-{3-[(tert-butoxy)carbonylamino]propyl}-5-oxopyrrolidin-2-yl)methyl](6-(2-cyanophenyl)-2-{[2-(3-fluorophenyl)ethyl]amino}(3-pyridyl))carboxamide] | 0.518
27 | CC(C)(C)OC(=O)NCC(=O)N1CCC[C@H](CNC(=O)c2ccc(-c3ccccc3C#N)nc2NCCc2cccc(F)c2)C1 [N-[((3R)-1-{2-[(tert-butoxy)carbonylamino]acetyl}(3-piperidyl))methyl](6-(2-cyanophenyl)-2-{[2-(3-fluorophenyl)ethyl]amino}(3-pyridyl))carboxamide] | 0.199
28 | CC(C)(C)OC(=O)NCCCN1C(=O)CC[C@@H]1CNC(=O)c1cc(F)c(-c2cn[nH]c2)nc1NCCc1cccc(F)c1 [N-[((2R)-1-{3-[(tert-butoxy)carbonylamino]propyl}-5-oxopyrrolidin-2-yl)methyl](5-fluoro-2-{[2-(3-fluorophenyl)ethyl]amino}-6-pyrazol-4-yl(3-pyridyl))carboxamide] | 0.354
29 | Cc1cc(C(=O)NCc2cccnc2CNC(=O)OC(C)(C)C)c(NCCc2cccc(F)c2)nc1-c1cnn(C)c1 [N-[(2-{[(tert-butoxy)carbonylamino]methyl}(3-pyridyl))methyl](2-{[2-(3-fluorophenyl)ethyl]amino}-5-methyl-6-(1-methylpyrazol-4-yl)(3-pyridyl))carboxamide] | 1.12
